According to patent publication US20240158368A1, “Pyrrolidine Main Protease Inhibitors as Antiviral Agents” (AbbVie Inc., priority 2022, published 2024):
Like-named read-outs stand apart in the source and are kept apart here.

Tests used:
[1] = in vitro; details: human, microsomes, pH 7.4
[2] = tested on: SARS-CoV-2 (strain USA-WA1/2020); assay: microbe, parasite or virus in culture; format: cell-based
[3] = biological target: OC43 Mpro (Human coronavirus OC43 (HCoV-OC43), UniProt P0C6X6); format: biochemical
OC43 Mpro, sequence (P0C6X6 3247-3549 limits assumed): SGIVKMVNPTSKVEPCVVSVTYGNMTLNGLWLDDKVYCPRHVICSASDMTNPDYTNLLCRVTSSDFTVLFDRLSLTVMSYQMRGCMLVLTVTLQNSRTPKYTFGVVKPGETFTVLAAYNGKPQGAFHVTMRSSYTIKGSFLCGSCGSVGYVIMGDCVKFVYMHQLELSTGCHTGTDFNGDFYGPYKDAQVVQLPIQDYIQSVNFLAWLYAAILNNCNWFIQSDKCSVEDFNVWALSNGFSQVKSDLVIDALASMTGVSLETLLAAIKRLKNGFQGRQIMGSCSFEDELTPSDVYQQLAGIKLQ

[4] = biological target: SARS-CoV-2 Mpro (Severe acute respiratory syndrome coronavirus 2 (2019-nCoV) (SARS-CoV-2), UniProt P0DTD1); format: biochemical
[5] = in vitro; details: rat, microsomes, pH 7.4
[6] = biological target: MERS Mpro (Middle East respiratory syndrome-related coronavirus (isolate United Kingdom/H123990006/2012) (MERS-CoV) (Betacoronavirus England 1), UniProt K9N7C7); assay: biochemical
MERS Mpro, sequence (K9N7C7 3248-3553 limits assumed): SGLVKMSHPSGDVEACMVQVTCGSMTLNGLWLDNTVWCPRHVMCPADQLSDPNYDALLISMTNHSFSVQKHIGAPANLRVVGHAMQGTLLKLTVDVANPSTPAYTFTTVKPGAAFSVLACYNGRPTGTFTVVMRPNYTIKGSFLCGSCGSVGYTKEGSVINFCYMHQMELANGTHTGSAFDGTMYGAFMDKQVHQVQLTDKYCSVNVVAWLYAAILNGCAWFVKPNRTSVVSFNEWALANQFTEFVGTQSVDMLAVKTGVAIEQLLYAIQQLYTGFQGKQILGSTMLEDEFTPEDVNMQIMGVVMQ

[7] = biological target: SARS-CoV-1 Mpro (Severe acute respiratory syndrome coronavirus (SARS-CoV), UniProt P0C6X7); format: biochemical
[8] = biological target: 229E Mpro (Human coronavirus 229E (HCoV-229E), UniProt P0C6X1); format: biochemical
229E Mpro, sequence (P0C6X1 2966-3267 limits assumed): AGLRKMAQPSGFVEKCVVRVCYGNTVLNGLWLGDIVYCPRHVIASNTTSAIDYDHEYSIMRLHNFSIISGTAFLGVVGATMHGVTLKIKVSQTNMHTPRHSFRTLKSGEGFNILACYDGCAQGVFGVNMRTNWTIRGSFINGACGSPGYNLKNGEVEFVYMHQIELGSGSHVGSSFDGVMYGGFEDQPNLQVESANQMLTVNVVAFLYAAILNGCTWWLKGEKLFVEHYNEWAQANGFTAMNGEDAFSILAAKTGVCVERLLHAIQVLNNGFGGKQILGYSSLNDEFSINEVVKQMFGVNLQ

[9] = in vitro; details: PAMPA
[10] = tested on: OC43 virus; assay: microbe, parasite or virus in culture; format: cell-based; details: Betacoronavirus 1, OC43, Huh-7, read-out: Antiviral OC43 EC50 (μM)
[11] = tested on: 229E virus; assay: organism not typed; format: cell-based; details: Huh-7, read-out: Antiviral 229E EC50 (μM)
[12] = Severe acute respiratory syndrome coronavirus 2, HeLa-ACE2 cells, read-out: Antiviral CoV-2 EC50

| SMILES | CLint scaled [1] | EC50 [2, 12] | EC50 [3] | EC50 [4] | CLint scaled [5] | EC50 [6] | EC50 [7] | EC50 [8] | Papp [9] | EC50 [10] | EC50 [11] | EC50 ([2]; Severe acute respiratory syndrome coronavirus 2, HeLa-ACE2, read-out: Antiviral CoV-2 EC50 (μM)) |
| --- | --- | --- | --- | --- | --- | --- | --- | --- | --- | --- | --- | --- |
| Cc1cc(C(=O)N[C@@H]2CCN(c3c(C(=O)N4CCOCC4)cc(Br)cc3C(F)(F)F)C2)c(F)c(=O)[nH]1 [Compound 3, (R)—N-(1-(4-bromo-2-(morpholine-4-carbonyl)-6-(trifluoromethyl)phenyl)pyrrolidin-3-yl)-3-fluoro-6-methyl-2-oxo-1,2-dihydropyridine-4-carboxamide] | < 36.7 mL/min/kg | 0.0203 µM | 3.88 nM | 0.63 nM | < 60 mL/min/kg | 1.23 nM | 0.97 nM | 12.9 nM | 5.84 ×10⁻⁶ cm/s | – | – | – |
| N#Cc1cc(C(=O)N2CCOCC2)c(N2CC[C@@H](NC(=O)c3cc(=O)[nH]c4c(F)cc(F)cc34)C2)c(C(F)(F)F)c1 [Compound 7] | < 35 mL/min/kg | 0.0256 µM | 4.95 nM | 0.43 nM | < 58.3 mL/min/kg | 0.99 nM | – | 2.76 nM | 6.77 ×10⁻⁶ cm/s | – | – | – |
| Cc1cc(C(=O)N[C@@H]2CCN(c3c(C(=O)N4CCOCC4)cc(C#N)cc3C(F)(F)F)C2)c(F)c(=O)[nH]1 [Compound 10] | < 30 mL/min/kg | 0.589 µM | 12 nM | 0.54 nM | < 50 mL/min/kg | 1.5 nM | – | 7.63 nM | 0.7 ×10⁻⁶ cm/s | – | – | – |
| C[C@@H]1C[C@@H](NC(=O)c2cc(=O)[nH]c3c(F)cccc23)CN1c1c(C(=O)N2CCOCC2)cc(C#N)cc1C(F)(F)F [Compound 30] | 61.7 mL/min/kg | – | 0.58 nM | 0.42 nM | 303 mL/min/kg | 1.04 nM | – | 1.25 nM | 13.3 ×10⁻⁶ cm/s | 0.029 µM | 0.011 µM | – |
| CO[C@H]1CN(c2c(C(=O)N3CCOCC3)cc(C#N)cc2C(F)(F)F)C[C@@H]1NC(=O)c1cc(=O)[nH]c2c(F)cccc12 [Compound 32] | 48.3 mL/min/kg | 0.0186 µM | 1.17 nM | 0.45 nM | < 70 mL/min/kg | 1.06 nM | – | 1.78 nM | 7.29 ×10⁻⁶ cm/s | – | – | – |
| N#Cc1cc(C(=O)N2CCOCC2)c(N2C[C@H](NC(=O)c3cc(=O)[nH]c4c(F)cc(F)cc34)CC2=O)c(C(F)(F)F)c1 [Compound 33] | < 35 mL/min/kg | 0.174 µM | 171 nM | 0.92 nM | < 56.7 mL/min/kg | 2.49 nM | – | 38.5 nM | 1.12 ×10⁻⁶ cm/s | – | – | – |
| NC(=O)c1cc(C(=O)N2CCOCC2)c(N2CC[C@@H](NC(=O)c3cc(=O)[nH]c4c(F)cccc34)C2)c(C(F)(F)F)c1 [Compound 35] | < 28.3 mL/min/kg | – | 16.5 nM | 0.53 nM | 46.7 mL/min/kg | 0.93 nM | 2.45 nM | 2.6 nM | 0.1 ×10⁻⁶ cm/s | – | – | – |
| CN1CCN(C(=O)c2cc(Cl)cc(C(F)(F)F)c2N2CC[C@@H](NC(=O)c3cc(=O)[nH]c4c(F)cccc34)C2)CC1 [Compound 37] | 150 mL/min/kg | 0.0288 µM | 1 nM | 0.63 nM | 423 mL/min/kg | 1.22 nM | 1.68 nM | 2.53 nM | 6.23 ×10⁻⁶ cm/s | – | – | – |
| O=C(N[C@@H]1CCN(c2c(C(=O)N3CCOCC3)cc(F)cc2C(F)(F)F)C1)c1cc(=O)[nH]c2c(F)cc(F)cc12 [Compound 38] | 173 mL/min/kg | – | 9.11 nM | 1.84 nM | 625 mL/min/kg | 2.39 nM | – | 5.9 nM | 14.5 ×10⁻⁶ cm/s | 0.327 µM | 0.142 µM | – |
| N#Cc1cc(C(=O)N2CCOCC2)c(N2CC[C@@H](NC(=O)c3c(F)c(=O)[nH]c4c(F)cccc34)C2)c(C(F)F)c1 [Compound 39] | < 25 mL/min/kg | 0.0189 µM | 1.05 nM | 0.42 nM | < 41.7 mL/min/kg | 1.12 nM | 2.56 nM | 3.45 nM | 4.71 ×10⁻⁶ cm/s | – | – | – |
| N#Cc1cc(C(=O)N2CCOCC2)c(N2CC[C@@H](NC(=O)c3cc(=O)[nH]c4c(F)cccc34)C2)c(C2CC2)c1 [Compound 40] | < 28.3 mL/min/kg | 0.005 µM | 0.55 nM | 0.42 nM | 220 mL/min/kg | 0.89 nM | – | 2.47 nM | 5.15 ×10⁻⁶ cm/s | – | – | – |
| O=C(N[C@@H]1CCN(c2c(OC(F)(F)F)cc(Br)cc2C(=O)N2CCOCC2)C1)c1cc(=O)[nH]c2c(F)cccc12 [Compound 42] | 125 mL/min/kg | 0.0082 µM | 1.4 nM | 0.45 nM | 482 mL/min/kg | 1.05 nM | – | 3.58 nM | 14.7 ×10⁻⁶ cm/s | – | – | – |
| O=C(N[C@@H]1CCN(c2c(OC(F)F)cc(Cl)cc2C(=O)N2CCOCC2)C1)c1cc(=O)[nH]c2c(F)cccc12 [Compound 43] | 100 mL/min/kg | 0.0247 µM | 3.17 nM | 0.46 nM | 312 mL/min/kg | 1.41 nM | – | 15 nM | 12.7 ×10⁻⁶ cm/s | – | – | – |
| O=C(N[C@@H]1CCN(c2c(C(=O)N3CCOCC3)cc(Br)cc2C(F)(F)F)C1)c1cc(=O)[nH]c2c(F)ccc(F)c12 [Compound 52] | 183 mL/min/kg | 0.009 µM | 0.84 nM | 0.43 nM | 452 mL/min/kg | 1.03 nM | – | 3.58 nM | 12.6 ×10⁻⁶ cm/s | – | – | – |
| O=C(N[C@@H]1CCN(c2c(C(=O)N3CCOCC3)cc(Br)cc2C(F)F)C1)c1c(F)c(=O)[nH]c2c(F)cccc12 [Compound 54] | 140 mL/min/kg | 0.005 µM | 0.42 nM | 0.43 nM | 257 mL/min/kg | 1.12 nM | – | 4.72 nM | 13.1 ×10⁻⁶ cm/s | – | – | – |
| O=C(N[C@@H]1CCN(c2c(C(=O)N3CCOCC3)cc(Cl)cc2C(F)(F)F)C1)c1c(F)c(=O)[nH]c2c(F)cccc12 [Compound 55] | 157 mL/min/kg | 0.0046 µM | 0.42 nM | 0.42 nM | 318 mL/min/kg | 0.84 nM | 0.56 nM | 1.74 nM | 18.6 ×10⁻⁶ cm/s | – | – | – |
| Cc1[nH]c(=O)cc(C(=O)N[C@@H]2CCN(c3c(C(=O)N4CCOCC4)cc(Br)cc3C(F)(F)F)C2)c1F [Compound 59] | < 61.7 mL/min/kg | 0.0956 µM | 6.09 nM | 1.11 nM | < 68.3 mL/min/kg | 1.01 nM | – | 20.4 nM | 8.24 ×10⁻⁶ cm/s | – | – | – |
| Cc1cc(C(=O)N2CCOCC2)c(N2CC[C@@H](NC(=O)c3cc(C)[nH]c(=O)c3F)C2)c(C2CC2)c1 [Compound 60] | 66.7 mL/min/kg | 0.18 µM | 1.22 nM | 0.48 nM | – | 1.4 nM | 0.74 nM | 5.14 nM | 2.95 ×10⁻⁶ cm/s | – | – | – |
| CN1CCN(C(=O)c2cc(Br)cc(C(F)(F)F)c2N2CC[C@@H](NC(=O)c3cc(=O)[nH]c4c(F)cccc34)C2)CC1 [Compound 63] | 357 mL/min/kg | 0.0127 µM | 0.91 nM | 0.56 nM | 722 mL/min/kg | 1.06 nM | 1.27 nM | 1.99 nM | 5.6 ×10⁻⁶ cm/s | – | – | – |
| O=C(N[C@@H]1CCN(c2c(C(=O)N3CC4CC(C3)O4)cc(Br)cc2C(F)(F)F)C1)c1cc(=O)[nH]c2c(F)cccc12 [Compound 65] | 93.3 mL/min/kg | – | 1.29 nM | 0.42 nM | 258 mL/min/kg | 1.54 nM | 1.86 nM | 2.76 nM | 16 ×10⁻⁶ cm/s | – | – | 0.0092 µM |
| COCCN1CCN(C(=O)c2cc(Br)cc(C(F)(F)F)c2N2CC[C@@H](NC(=O)c3cc(=O)[nH]c4c(F)cccc34)C2)CC1 [Compound 67] | 313 mL/min/kg | – | 1.52 nM | 0.5 nM | 1180 mL/min/kg | 1.5 nM | 2.56 nM | 4.22 nM | 16.3 ×10⁻⁶ cm/s | – | – | – |
| O=C(N[C@@H]1CCN(c2c(C(=O)N3CCN4CCOCC4C3)cc(Br)cc2C(F)(F)F)C1)c1cc(=O)[nH]c2c(F)cccc12 (stereo partly shown) [Compound 71] | 423 mL/min/kg | – | 0.66 nM | 0.42 nM | 358 mL/min/kg | 0.78 nM | 1.94 nM | 3.84 nM | 18.8 ×10⁻⁶ cm/s | – | – | – |
| O=C(N[C@@H]1CCN(c2c(C(=O)N3CC4(COC4)C3)cc(Br)cc2C(F)(F)F)C1)c1cc(=O)[nH]c2c(F)cccc12 [Compound 73] | 117 mL/min/kg | 0.0123 µM | 1.13 nM | 0.53 nM | 327 mL/min/kg | 1.69 nM | 3.84 nM | 5.79 nM | 11.7 ×10⁻⁶ cm/s | – | – | – |
| Cc1cc(C(=O)N2CCOCC2)c(N2C[C@H](NC(=O)c3cc(=O)[nH]c4c(F)c(F)ccc34)CC2=O)c(C2CC2)c1 [Compound 75] | < 33.3 mL/min/kg | 0.0231 µM | 2.25 nM | 0.63 nM | < 55 mL/min/kg | 1.72 nM | 0.72 nM | 6.11 nM | 2.46 ×10⁻⁶ cm/s | – | – | – |
